Columns and labels:
[1] = molecular target: T1, AR (AR-full length) in LNCaP cells (Homo sapiens, UniProt P10275, T878A); test: LNCaP Androgen Receptor Imaging Assay (immunofluorescence of endogenous nuclear AR); assay type: cell-based; settings: 24 h incubation; for DC50: concentration giving 50% of maximum degradation of AR per curve fit, single experiment or average of two or more; for Dmax: LNCaP, maximum degradation observed, normalized as % of positive control (prior art AR PROTAC at 3 μM)
T1 construct: the prostate cancer cell line LNCaP (expressing AR-full length); endogenous in cells; host or cells: LNCaP
T1 sequence (P10275 whole entry T878A): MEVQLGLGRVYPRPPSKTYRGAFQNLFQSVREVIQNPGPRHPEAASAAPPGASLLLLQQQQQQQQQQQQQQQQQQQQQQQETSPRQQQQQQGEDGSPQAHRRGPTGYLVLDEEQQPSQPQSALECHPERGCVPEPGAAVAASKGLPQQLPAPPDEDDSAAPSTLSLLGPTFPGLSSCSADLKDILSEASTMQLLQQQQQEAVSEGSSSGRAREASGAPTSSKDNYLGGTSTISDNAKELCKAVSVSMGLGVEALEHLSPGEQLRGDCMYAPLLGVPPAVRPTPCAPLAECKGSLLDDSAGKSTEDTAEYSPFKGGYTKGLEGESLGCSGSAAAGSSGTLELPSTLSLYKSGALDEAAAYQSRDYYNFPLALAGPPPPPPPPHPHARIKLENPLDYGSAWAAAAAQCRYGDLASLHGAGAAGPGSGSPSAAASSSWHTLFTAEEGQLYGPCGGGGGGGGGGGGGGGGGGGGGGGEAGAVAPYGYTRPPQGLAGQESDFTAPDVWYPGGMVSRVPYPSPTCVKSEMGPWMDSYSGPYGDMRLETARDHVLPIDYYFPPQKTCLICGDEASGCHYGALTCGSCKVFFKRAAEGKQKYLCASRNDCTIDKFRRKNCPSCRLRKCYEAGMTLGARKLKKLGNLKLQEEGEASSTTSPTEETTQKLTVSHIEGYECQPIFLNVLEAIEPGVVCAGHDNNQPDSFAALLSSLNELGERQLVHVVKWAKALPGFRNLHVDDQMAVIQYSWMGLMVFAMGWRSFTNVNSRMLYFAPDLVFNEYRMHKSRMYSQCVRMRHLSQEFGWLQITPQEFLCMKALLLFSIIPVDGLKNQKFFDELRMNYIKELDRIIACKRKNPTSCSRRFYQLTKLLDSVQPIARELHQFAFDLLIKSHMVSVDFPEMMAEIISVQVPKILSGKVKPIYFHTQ
T1 sequence (Q96SW2 whole entry partner): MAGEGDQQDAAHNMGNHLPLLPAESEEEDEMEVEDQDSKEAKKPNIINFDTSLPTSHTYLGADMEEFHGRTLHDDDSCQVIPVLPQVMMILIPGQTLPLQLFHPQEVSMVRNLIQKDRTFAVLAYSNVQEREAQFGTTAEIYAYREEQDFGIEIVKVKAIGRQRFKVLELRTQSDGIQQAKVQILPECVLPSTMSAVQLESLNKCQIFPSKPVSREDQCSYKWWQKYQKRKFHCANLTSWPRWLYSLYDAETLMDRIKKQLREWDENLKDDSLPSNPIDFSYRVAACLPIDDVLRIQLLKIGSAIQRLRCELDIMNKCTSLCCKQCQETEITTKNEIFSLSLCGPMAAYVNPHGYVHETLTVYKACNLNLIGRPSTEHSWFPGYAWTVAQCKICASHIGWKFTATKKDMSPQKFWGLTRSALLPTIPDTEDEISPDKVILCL
Procedure, shortened: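 Endogenous nuclear AR level was imaged by immunofluorescence after 24 h compound exposure (12-point dose response, 0.3% DMSO, 37° C./5% CO2) in LNCaP cells. Data were expressed as % of a 3 μM prior-art AR PROTAC control and fitted (bell fit where a hook appeared) to give DC50 and maximum degradation Dmax.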

[2] = molecular target: T2, AR (L702H) in LNCaP cells (Homo sapiens, UniProt P10275, L702H/T878A); test: LNCaP Androgen Receptor L702H Imaging Assay (LNCaP cells engineered by CRISPR/Cas9); assay type: cell-based; settings: LNCaP cells with AR L702H mutation, 24 h incubation; for DC50: concentration giving 50% of maximum degradation of AR (L702H) per curve fit; for Dmax: LNCaP, maximum degradation observed, normalized as % of positive control
T2 construct: engineered to introduce the mutation L702H into the AR gene using CRISPR/Cas9; endogenous in cells; host or cells: LNCaP cells edited by CRISPR/Cas9 at the AR gene
T2 sequence (P10275 whole entry L702H/T878A): as the sequence (P10275 whole entry T878A) above, with L702H counted along it
T2 sequence (Q96SW2 whole entry partner): as the sequence (Q96SW2 whole entry partner) above
Procedure, shortened: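 AR (L702H) degradation, expressed as DC50 and Dmax from curve fits normalized to a positive degrader control, was measured by high-content imaging of anti-AR immunofluorescence. The engineered LNCaP line was dosed over 12 concentrations for 24 h, 0.3% DMSO final, before PFA fixation.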

SMILES | DC50 [1] [nM] | Dmax [1] [%] | DC50 [2] [nM] | Dmax [2] [%]
N#Cc1n[nH]c2c(N3CCC[C@@H](c4ccc(N5CCC(CN6CCC(n7ccc8c(N9CCC(=O)NC9=O)cccc87)CC6)CC5)cc4)C3)ccc(F)c12 [Example 134, 7-[(3S)-3-{4-[4-({4-[4-(2,4-Dioxo-1,3-diazinan-1-yl)-1H-indol-1-yl]piperidin-1-yl}methyl)piperidin-1-yl]phenyl}piperidin-1-yl]-4-fluoro-1H-indazole-3-carbonitrile] | 5 | 106 | 22 | 94
N#Cc1c[nH]c2c(N3CCC(c4ccc(N5CC6(CCC(CN7CCC(n8ccc9c(N%10CCC(=O)NC%10=O)cccc98)CC7)CC6)C5)cc4)CC3)ccc(F)c12 [Example 135, 7-(4-{4-[7-({4-[4-(2,4-Dioxo-1,3-diazinan-1-yl)-1H-indol-1-yl]piperidin-1-yl}methyl)-2-azaspiro[3.5]nonan-2-yl]phenyl}piperidin-1-yl)-4-fluoro-1H-indole-3-carbonitrile] | 24 | 105 | 81 | 91
Cn1c(C2CCN(CC3CCN(c4ccc([C@H]5CCCN(c6ccc(Cl)c7c(C#N)c[nH]c67)C5)cc4)CC3)CC2)cc2cc(F)c(N3CCC(=O)NC3=O)cc21 [Example 136, 4-Chloro-7-[(3R)-3-{4-[4-({4-[6-(2,4-dioxo-1,3-diazinan-1-yl)-5-fluoro-1-methyl-1H-indol-2-yl]piperidin-1-yl}methyl)piperidin-1-yl]phenyl}piperidin-1-yl]-1H-indole-3-carbonitrile] | 10 | 104 | 14 | 108
Cn1c(C2CCN(CC3CCN(c4ccc([C@@H]5CCCN(c6ccc(Cl)c7c(C#N)c[nH]c67)C5)cc4)CC3)CC2)cc2cc(F)c(N3CCC(=O)NC3=O)cc21 [Example 137, 4-Chloro-7-[(3S)-3-{4-[4-({4-[6-(2,4-dioxo-1,3-diazinan-1-yl)-5-fluoro-1-methyl-1H-indol-2-yl]piperidin-1-yl}methyl)piperidin-1-yl]phenyl}piperidin-1-yl]-1H-indole-3-carbonitrile] | 10 | 105 | 20 | 109
Cn1c(C2CCN(CC3CCN(c4ccc([C@H]5CCCN(c6ccc(Cl)c7c(C#N)n[nH]c67)C5)cc4)CC3)CC2)cc2cc(F)c(N3CCC(=O)NC3=O)cc21 [Example 138, 4-Chloro-7-[(3R)-3-{4-[4-({4-[6-(2,4-dioxo-1,3-diazinan-1-yl)-5-fluoro-1-methyl-1H-indol-2-yl]piperidin-1-yl}methyl)piperidin-1-yl]phenyl}piperidin-1-yl]-1H-indazole-3-carbonitrile] | 8 | 104 | 6 | 108
Cn1c(C2CCN(CC3CCN(c4ccc([C@@H]5CCCN(c6ccc(Cl)c7c(C#N)n[nH]c67)C5)cc4)CC3)CC2)cc2cc(F)c(N3CCC(=O)NC3=O)cc21 [Example 139, 4-Chloro-7-[(3S)-3-{4-[4-({4-[6-(2,4-dioxo-1,3-diazinan-1-yl)-5-fluoro-1-methyl-1H-indol-2-yl]piperidin-1-yl}methyl)piperidin-1-yl]phenyl}piperidin-1-yl]-1H-indazole-3-carbonitrile] | 10 | 105 | 16 | 107
Cn1c(C2CCN(CC3CCN(c4ccc(C5CCN(c6ccc(F)c7c(C#N)n[nH]c67)CC5)cc4)CC3)CC2)cc2ccc(N3CCC(=O)NC3=O)cc21 [Example 140, 7-(4-{4-[4-({4-[6-(2,4-Dioxo-1,3-diazinan-1-yl)-1-methyl-1H-indol-2-yl]piperidin-1-yl}methyl)piperidin-1-yl]phenyl}piperidin-1-yl)-4-fluoro-1H-indazole-3-carbonitrile] | 7 | 88 | 14 | 56
Cc1cc2c(N3CCC(=O)NC3=O)cccc2n1C1CCN(CC2CCN(c3ccc(C4CCN(c5ccc(F)c6c(C#N)c[nH]c56)CC4)cc3)CC2)CC1 [Example 141, 7-(4-{4-[4-({4-[4-(2,4-Dioxo-1,3-diazinan-1-yl)-2-methyl-1H-indol-1-yl]piperidin-1-yl}methyl)piperidin-1-yl]phenyl}piperidin-1-yl)-4-fluoro-1H-indole-3-carbonitrile] | 21 | 95 | 23 | 105
N#Cc1c[nH]c2c(N3CCC(c4ccc(N5CC6(CCC(CN7CCC(n8ccc9c(N%10CCC(=O)NC%10=O)cccc98)CC7)CC6)C5)cc4)CC3)ccc(Cl)c12 [Example 142, 4-Chloro-7-(4-{4-[7-({4-[4-(2,4-dioxo-1,3-diazinan-1-yl)-1H-indol-1-yl]piperidin-1-yl}methyl)-2-azaspiro[3.5]nonan-2-yl]phenyl}piperidin-1-yl)-1H-indole-3-carbonitrile] | 25 | 106 | 45 | 109
COc1nc(N2CCN(CC3CCN(c4ccc(C5CCN(c6ccc(Cl)c7c(C#N)n[nH]c67)CC5)cc4)CC3)CC2)cc2c1C(=O)N(C1CCC(=O)NC1=O)C2 (centres unmarked) [Example 143, 4-Chloro-7-(4-{4-[4-({4-[2-(2,6-dioxopiperidin-3-yl)-4-methoxy-3-oxo-2,3-dihydro-1H-pyrrolo[3,4-c]pyridin-6-yl]piperazin-1-yl}methyl)piperidin-1-yl]phenyl}piperidin-1-yl)-1H-indazole-3-carbonitrile] | 37 | 101 | 67 | 104
COc1nc(N2CCN(CC3CCN(c4ccc(C5CCN(c6ccc(F)c7c(C#N)n[nH]c67)CC5)cc4)CC3)CC2)cc2c1C(=O)N(C1CCC(=O)NC1=O)C2 (centres unmarked) [Example 144, 7-(4-{4-[4-({4-[2-(2,6-Dioxopiperidin-3-yl)-4-methoxy-3-oxo-2,3-dihydro-1H-pyrrolo[3,4-c]pyridin-6-yl]piperazin-1-yl}methyl)piperidin-1-yl]phenyl}piperidin-1-yl)-4-fluoro-1H-indazole-3-carbonitrile] | 21 | 97 | 95 | 75
N#Cc1n[nH]c2c(N3CCC(c4ccc(N5CCC(CN6CCN(c7ccc8c(c7)CN(C7CCC(=O)NC7=O)C8=O)CC6)CC5)cc4)CC3)ccc(F)c12 (centres unmarked) [Example 145, 7-(4-{4-[4-({4-[2-(2,6-Dioxopiperidin-3-yl)-1-oxo-2,3-dihydro-1H-isoindol-5-yl]piperazin-1-yl}methyl)piperidin-1-yl]phenyl}piperidin-1-yl)-4-fluoro-1H-indazole-3-carbonitrile] | 9 | 98 | 40 | 70
N#Cc1n[nH]c2c(N3CCC(c4ccc(N5CCC(CN6CCC(n7ccc8c(N9CCC(=O)NC9=O)cccc87)CC6)CC5)cc4)CC3)ccc(Cl)c12 [Example 146, 4-Chloro-7-(4-{4-[4-({4-[4-(2,4-dioxo-1,3-diazinan-1-yl)-1H-indol-1-yl]piperidin-1-yl}methyl)piperidin-1-yl]phenyl}piperidin-1-yl)-1H-indazole-3-carbonitrile] | 27 | 100 | 38 | 102
N#Cc1n[nH]c2c(N3CCC(c4ccc(N5CCC(CN6CCC(n7ccc8c(N9CCC(=O)NC9=O)cccc87)CC6)CC5)cc4)CC3)ccc(F)c12 [Example 147, 7-(4-{4-[4-({4-[4-(2,4-Dioxo-1,3-diazinan-1-yl)-1H-indol-1-yl]piperidin-1-yl}methyl)piperidin-1-yl]phenyl}piperidin-1-yl)-4-fluoro-1H-indazole-3-carbonitrile] | 6 | 102 | 38 | 96
COc1cc(N2CCN(CCCCOc3ccc(C4CCN(c5ccc(C)c6c(C#N)n[nH]c56)CC4)cc3)CC2)cc2c1C(=O)N(C1CCC(=O)NC1=O)C2 (centres unmarked) [Example 148, 7-{4-[4-(4-{4-[2-(2,6-Dioxopiperidin-3-yl)-7-methoxy-1-oxo-2,3-dihydro-1H-isoindol-5-yl]piperazin-1-yl}butoxy)phenyl]piperidin-1-yl}-4-methyl-1H-indazole-3-carbonitrile] | 20 | 99 | 52 | 89
COc1cc(N2CCN(CC3CCN(c4ccc(C5CCN(c6ccc(C)c7c(C#N)n[nH]c67)CC5)cc4)CC3)CC2)cc2c1C(=O)N(C1CCC(=O)NC1=O)C2 (centres unmarked) [Example 149, 7-(4-{4-[4-({4-[2-(2,6-Dioxopiperidin-3-yl)-7-methoxy-1-oxo-2,3-dihydro-1H-isoindol-5-yl]piperazin-1-yl}methyl)piperidin-1-yl]phenyl}piperidin-1-yl)-4-methyl-1H-indazole-3-carbonitrile] | 20 | 96 | 60 | 91
N#Cc1n[nH]c2c(N3CCC(NC(=O)c4ccc(N5CCC(CN6CCC(n7ccc8c(N9CCC(=O)NC9=O)cccc87)CC6)CC5)cc4F)CC3)ccc(Cl)c12 [Example 152, N-[1-(4-Chloro-3-cyano-1H-indazol-7-yl)piperidin-4-yl]-4-[4-({4-[4-(2,4-dioxo-1,3-diazinan-1-yl)-1H-indol-1-yl]piperidin-1-yl}methyl)piperidin-1-yl]-2-fluorobenzamide] | 2 | 105 | 2 | 108

Source: patent US20260274832A1, “COMPOUNDS AND THEIR USE IN TREATING CANCER” (ASTRAZENECA AB, priority 2023, published 2026)
